Reference: paper PMC8397403, “Physiologically Based Pharmacokinetic Modeling of Transporter-Mediated Hepatic Disposition of Imaging Biomarker Gadoxetate in Rats” (Molecular Pharmaceutics, 2021)
Values joined by “and” are separate entries in the source; they are usually repeats but may differ in a detail not shown here. Identical values can stand only once. Marks after values point to notes of the source that are not given here.

What was measured:
[1] = Top-down PBPK model fitting to DCE-MRI ΔR1 data, gadoxetate administered alone; format: in vivo, rat
Description: (§1) DCE–MRI data generated using the 3D Fast Low Angle Shot RF-spoiled gradient echo sequence (FLASH) protocol in male Wistar-Han rats were used for assessing the PBPK IVIVE performances and for obtaining some of the PBPK parameters within the bottom-up and top-down approaches, respectively. The DCE–MRI data were acquired in a multicenter study at two magnetic field strengths, 4.7 and 7 T. Gadoxetate was administered at a dose of 25 μmol/kg, either alone or 1 h after IV administration of 10 mg/kg rifampicin. When gadoxetate was administered alone (control arm), 43 profiles of blood, spleen, and liver measured at a field strength of 4.7 T and 52 profiles of blood, spleen, and liver measured at 7 T were available. In the case of gadoxetate administered with rifampicin, 7 blood, spleen, and liver profiles at a field strength equal to 4.7 T and 6 at 7 T were available. All gadoxetate DCE–MRI data and study protocols are detailed in a companion paper (Hines et al. in submission).
The measured quantity in DCE–MRI is ΔR1 (s^–1), the change of the water proton longitudinal relaxation rate, a magnetic property of the tissues, due to the presence of the contrast agent. In sufficiently homogeneous tissues, the tissue concentration of the contrast agent as a function of time, c(t), can be derived from ΔR1(t). The relationship between c(t) and ΔR1(t) depends on the physical interactions between the contrast agent molecules and the tissue.[39] For a given tissue τ, the relation between ΔR1,τ(t) and cτ(t) is generally considered to be linear, as in eq 4.[39],[40] [drawing 4] 4
A reduced PBPK model was developed to describe the PK of gadoxetate in rats; a permeability-limited liver model was implemented capturing relevant processes, as done previously.[6],[41] The compartments represent the blood, spleen, splanchnic organs, liver interstitial space, hepatocytes, and the rest of the body (ROB) vascular and extravascular spaces. The ROB compartment includes muscles, skin, bones, and fat among others. Details of model equations and physiological parameters values are reported in the Supporting Information, Sections 2, 3, and 5.
Standard kinetic models used for MRI contrast agents generally describe the organs by using three compartments: plasma, interstitial, and intracellular spaces.[12],[42],[43] Gadoxetate distributes only in the extracellular space of all the organs; liver is the exception, where gadoxetate undergoes active uptake into the hepatocytes.[44] Therefore, in the gadoxetate PBPK model, the volume of all the compartments, except the blood and the liver, corresponded to the organ extracellular space, that in turn was considered to be composed of the blood within the organ and the interstitial space. For highly vascularized and perfused organs with fenestrated capillaries (e.g., liver), the exchange between the plasma and the interstitial space is generally considered to be fast.[12],[19] Therefore, for liver, spleen, and splanchnic compartments, the extracellular volumes were considered to be the sum of the blood within the organ and the interstitial space volumes. […] A permeability limitation between the vascular and interstitial space was, therefore, assumed for the ROB compartment, as shown in eq 5. [drawing 5] 5 cb, crob,v and crob,ev [μmol/L] are the gadoxetate concentration in blood and ROB vascular and extravascular compartments; Vrob,v and Vrob,ev [L] are the ROB vascular and extravascular compartment volumes, respectively; and PS [L/h] is the permeability surface product. […]

[2] = tested on: active uptake transport of gadoxetate into the liver; test: Simultaneous PBPK fitting of gadoxetate DCE-MRI data in control and rifampicin phases; format: in vivo, rat; details: value (CV)
Description: as §1
The DCE–MRI data used in this study were reported as ΔR1. Therefore, the relationship between the compartmental concentrations represented by the PBPK model state variables and the ΔR1 measurements for the blood, liver, and spleen needed to be described. The linear relationship in eq 4 is not valid for ΔR1 of the liver, ΔR1,liv, because intracellular and extracellular tissue compartments have different relaxivities. To derive ΔR1,liv, a volume fraction-weighted mean of the contributions of the gadoxetate concentration in all the compartments used to model the liver was performed.[40] In the spleen, the entire distribution space was supposed to have the same relaxivity as blood and, therefore, eq 4 can be applied directly to derive spleen concentrations from ΔR1,spl. Concerning the blood, the blood value for r1 in Table 1 allows ΔR1,b to be directly related to the blood concentration. The relations between ΔR1,liv, ΔR1,spl, and ΔR1,b and the concentrations of the PBPK compartments are shown in eq 7. [drawing 7] 7 cspl,extr is the extracellular concentration in the spleen and Vspl,extr is the extracellular volume of the spleen and Vliv and Vspl are the whole volumes of liver and spleen. r1,liv,extr and r1,spl,extr were assumed to be equal to r1,b, as described in Hines et al.
In fact, each of the data are acquired during a time interval Δt, which was 57 s in the current dataset. To account for this characteristic when performing the parameter estimation, the residuals were calculated as the difference of the observed ΔR1 corresponding to a given time interval minus the mean of the simulated PBPK ΔR1 within the same interval, as explained in the Supporting Information, Section 4.
The extent of interaction with rifampicin was estimated by performing a simultaneous fitting of gadoxetate ΔR1 in the control and inhibitory phase. In this analysis, PS was considered the same for both phases, whereas the other parameters were separately estimated in the absence (CLactive and CLbiliary) and in the presence of rifampicin (CLactive,inh and CLbiliary,inh). CLbiliary,inh was considered to account for possible inhibition of Mrp2 in rat by rifampicin, as previously reported.[45] To understand the impact of the inclusion of the liver-imaging data on the parameter optimization, the simultaneous estimation was also performed considering only the blood data.
All the PBPK analyses were performed in MATLAB R2020a,[50] the ordinary differential equations were solved with the function “ode15s”, while the parameter optimization was performed with the function “lsqnonlin”. The uncertainty of the parameters estimate was evaluated with the case-bootstrap,[51] using 1000 samples.

[3] = fit to blood, spleen and liver ΔR1, gadoxetate alone, mean (CV %) of 1000 bootstrap samples
[4] = gadoxetate alone, blood data only, value (CV)
[5] = gadoxetate alone, blood, spleen, liver ΔR1, CLr also estimated, value (CV)
[6] = gadoxetate 1 h after rifampicin i.v. 10 mg/kg, simultaneous fit
[7] = simultaneous fit, 5-compartment liver model
[8] = with rifampicin, 5-compartment liver model

CCOc1ccc(C[C@@H](CN(CCN(CC(=O)[O-])CC(=O)[O-])CC(=O)[O-])N(CC(=O)[O-])CC(=O)[O-])cc1.[Gd+3].[H+].[H+] [gadoxetate]
CLactive, top-down estimate ([1]; fit to blood, spleen and liver ΔR1, gadoxetate alone 25 μmol/kg, mean (CV %) of 1000 bootstrap samples): 2.17 (11.5%) ^b L/h | CLbiliary, top-down estimate [1, 3]: 0.07 (3.2%) ^b L/h | PS, top-down estimate [1, 3]: 0.62 (6.3%) ^b L/h | CLactive, estimated only with ΔR1 blood data [1, 4]: 1.88 (23.2 %) L/h and 1.88 L/h | PS, estimated only with ΔR1 blood data [1, 4]: 1.92 (20.8 %) L/h and 1.92 L/h | CLactive, simultaneous estimation with CLr [1, 5]: practically unidentifiable | CLbiliary, simultaneous estimation with CLr [1, 5]: 0.07 (2.6 %) L/h | PS, simultaneous estimation with CLr [1, 5]: 0.58 (8.3 %) L/h | CLactive, simultaneous estimation with CLr ([1]; gadoxetate alone, blood, spleen, liver ΔR1, CLr also estimated, value (CV), listed as Gadoxetate): 3.11 (>1000 %) L/h | CLr, estimated ([1]; gadoxetate alone, blood, spleen, liver ΔR1, value (CV)): 0.40 (24.6 %) L/h | CLactive, estimated value (with rifampicin) (CLactive,inh) [2, 6]: 0.095 (16.1%) L/h | CLbiliary, estimated value (with rifampicin) (CLbiliary,inh) [2, 6]: 0.08 (16.7%) L/h | CLactive, estimated value (control) ([2]; simultaneous fit of control and rifampicin phases, blood, spleen, liver ΔR1): 2.38 (13.6%) L/h | CLbiliary, estimated value (control) ([2]; simultaneous fit of control and rifampicin phases): 0.07 (3.1%) L/h | PS, blood ΔR1 only ([2]; simultaneous fit using only blood ΔR1, both groups): 2.07 (20 %) L/h | CLactive control group, blood ΔR1 only ([2]; simultaneous fit using only blood ΔR1): 1.82 (30 %) L/h and 1.82 L/h | CLactive control group, 5-compartment liver model [2, 7]: 1.45 (7.4 %) L/h | CLbiliary control group, 5-compartment liver model [2, 7]: 0.07 (3.2 %) L/h | PS, 5-compartment liver model ([2]; simultaneous fit, both groups): 0.81 (7.2 %) L/h | PS, estimated value ([2]; simultaneous fit, same for both phases): 0.71 (5.7%) L/h | CLactive rifampicin group (CLactive,inh), blood ΔR1 only ([2]; with rifampicin 10 mg/kg, simultaneous fit using only blood ΔR1): 0.29 (45 %) L/h and 0.29 L/h | CLactive rifampicin group, 5-compartment liver model [2, 8]: 0.065 (28.2 %) L/h | CLbiliary rifampicin group, 5-compartment liver model [2, 8]: 0.07 (26.6 %) L/h
